Results as given in patent publication US10681909B2, “Herbicidal triazoles” (FMC Corporation, priority 2014, dated 2020).

Columns and labels:
chamomile = test: Test D preemergence; assay type: in vivo, Matricaria inodora; conditions: for Plant response rating (0 to 100), Chamomile: 16 g ai/ha, 0 is no effect, 100 is complete control; for Plant response rating: Chamomile: scale 0 to 100
Description: (§1) Seeds of plant species selected from bluegrass (annual bluegrass, Poa annua), blackgrass (Alopecurus myosuroides), canarygrass (Phalaris minor), chickweed (common chickweed, Stellaria media), galium (catchweed bedstraw, Galium aparine), bromegrass, down (downy bromegrass, Bromus tectorum), Russian thistle (Salsola kali), field poppy (Papaver rhoeas), field violet (Viola arvensis), foxtail, green (green foxtail, Setaria viridis), deadnettle (henbit deadnettle, Lamium amplexicaule), ryegrass, Ital. (Italian ryegrass, Lolium multiflorum), kochia (Kochia scoparia), lambsquarters (Chenopodium album), oilseed rape (Brassica napus), pigweed (Amaranthus retroflexus), chamomile (scentless chamomile, Matricaria inodora), speedwell (bird's-eye speedwell, Veronica persica), barley, spring (spring barley, Hordeum vulgare), wheat, spring (spring wheat, Triticum aestivum), buckwheat, wild (wild buckwheat, Polygonum convolvulus), wild mustard (Sinapis arvensis), oat, wild (wild oat, Avena fatua), radish, wild (wild radish, Raphanus raphanistrum), […]), barley, winter (winter barley, Hordeum vulgare), and wheat, winter (winter wheat, Triticum aestivum) were planted into a silt loam soil and treated preemergence with test chemicals formulated in a non-phytotoxic solvent mixture which included a surfactant. At the same time, these species were planted in pots containing Sunshine Redi-Earth® planting medium comprising spaghnum peat moss, vermiculite, starter nutrients and dolomitic limestone and treated with postemergence applications of the test chemicals formulated in the same manner. Plants ranged in height from 2 to 18 cm (1- to 4-leaf stage). Treated plants and controls were maintained in a controlled growth environment for 14 to 21 d after which time all species were compared to controls and visually evaluated. […] A dash (-) response means no test result.

morningglory = test: Test C preemergence; assay type: in vivo, Ipomoea coccinea; conditions: for Plant response rating (scale of 0 to 100 where 0 is no effect and 100 is complete control): Morningglory, preemergence; for Morningglory plant response rating (0 to 100): Preemergence, visual rating after 13 to 15 d
Description: (§2) Seeds of plant species selected from blackgrass (Alopecurus myosuroides), ryegrass, Italian (Italian ryegrass, Lolium multiflorum), wheat (winter wheat, Triticum aestivum), galium (catchweed bedstraw, Galium aparine), corn (Zea mays), crabgrass, large (large crabgrass, Digitaria sanguinalis), foxtail, giant, (giant foxtail, Setaria faberii), johnsongrass (Sorghum halepense), lambsquarters (Chenopodium album), morningglory (Ipomoea coccinea), nutsedge, yellow (yellow nutsedge, Cyperus esculentus), pigweed (Amaranthus retroflexus), ragweed (common ragweed, Ambrosia elatior), soybean (Glycine max), barnyardgrass (Echinochloa crus-galli), oilseed rape (Brassica napus), waterhemp (common waterhemp, Amaranthus rudis), and velvetleaf (Abutilon theophrasti) were planted into a blend of loam soil and sand and treated preemergence with test chemicals formulated in a non-phytotoxic solvent mixture which included a surfactant. At the same time, plants selected from these crop and weed species and also chickweed (common chickweed, Stellaria media), oat, wild (wild oat, Avena fatua), and kochia (Kochia scoparia), were planted in pots containing Sunshine Redi-Earth® planting medium comprising spaghnum peat moss, vermiculite, starter nutrients and dolomitic limestone and treated with postemergence applications of test chemicals formulated in the same manner. Plants ranged in height from 2 to 18 cm (1- to 4-leaf stage) for postemergence treatments. […] A dash (-) response means no test result.

soybean = test: Test C preemergence; assay type: in vivo, Glycine max; conditions: for Soybean plant response rating (0 to 100): Preemergence, visual rating after 13 to 15 d; for Plant response rating (scale of 0 to 100 where 0 is no effect and 100 is complete control): Soybean, preemergence, 250 g ai/ha
Description: as §2

lambsquarters = test: Test D preemergence; assay type: in vivo, Chenopodium album; conditions: for Plant response rating (0 to 100), Lambsquarters: 16 g ai/ha, 0 is no effect, 100 is complete control; for Plant response rating: Lambsquarters: scale 0 to 100
Description: as §1

foxtail, giant = test: Test C preemergence; assay type: in vivo, Setaria faberii; conditions: for Plant response rating (scale of 0 to 100 where 0 is no effect and 100 is complete control): Foxtail, Giant, preemergence; for Foxtail, Giant plant response rating (0 to 100): Preemergence, visual rating after 13 to 15 d
Description: as §2

ryegrass, Ital. = test: Test D postemergence; assay type: in vivo, Lolium multiflorum; conditions: scale 0 to 100
Description: as §1

galium = test: Test C preemergence; assay type: in vivo, Galium aparine; conditions: for Plant response rating (scale of 0 to 100 where 0 is no effect and 100 is complete control): Galium, preemergence; for Galium plant response rating (0 to 100): Preemergence, visual rating after 13 to 15 d
Description: as §2

speedwell = test: Test D preemergence; assay type: in vivo, Veronica persica; conditions: for Plant response rating (0 to 100), Speedwell: 16 g ai/ha, 0 is no effect, 100 is complete control; for Plant response rating: Speedwell: scale 0 to 100
Description: as §1

bromegrass, down [1] = test: Test D postemergence; assay type: in vivo, Bromus tectorum; conditions: scale 0 to 100
Description: as §1

bluegrass = test: Test D postemergence; assay type: in vivo, Poa annua; conditions: scale 0 to 100
Description: as §1

bromegrass, down [2] = test: Test D preemergence; assay type: in vivo, Bromus tectorum; conditions: for Plant response rating (0 to 100), Bromegrass, Down: 16 g ai/ha, 0 is no effect, 100 is complete control; for Plant response rating: Bromegrass, Down: scale 0 to 100
Description: as §1

Fc1ccc(-c2nc(OCC(F)(F)F)n(Cc3ccnc(C(F)(F)F)c3)n2)cc1 [Compound 30]
Plant response rating (0 to 100), Chamomile (chamomile): 30
Plant response rating: Chamomile (chamomile; 31 g ai/ha): 40
Plant response rating: Chamomile (chamomile; 62 g ai/ha): 100
Plant response rating: Chamomile (chamomile; 125 g ai/ha): 100
Plant response rating (scale of 0 to 100 where 0 is no effect and 100 is complete control) (morningglory; 125 g ai/ha): 60
Plant response rating (scale of 0 to 100 where 0 is no effect and 100 is complete control) (morningglory; 250 g ai/ha): 90
Morningglory plant response rating (0 to 100) (morningglory; 31 g ai/ha): 35
Morningglory plant response rating (0 to 100) (morningglory; 62 g ai/ha): 35
Soybean plant response rating (0 to 100) (soybean; 31 g ai/ha): 10
Soybean plant response rating (0 to 100) (soybean; 62 g ai/ha): 5
Plant response rating (scale of 0 to 100 where 0 is no effect and 100 is complete control) (soybean): 40
Plant response rating (0 to 100), Lambsquarters (lambsquarters): 85
Plant response rating: Lambsquarters (lambsquarters; 62 g ai/ha): 95
Plant response rating: Lambsquarters (lambsquarters; 125 g ai/ha): 95
Plant response rating (scale of 0 to 100 where 0 is no effect and 100 is complete control) (foxtail, giant; 125 g ai/ha): 100
Plant response rating (scale of 0 to 100 where 0 is no effect and 100 is complete control) (foxtail, giant; 250 g ai/ha): 100
Foxtail, Giant plant response rating (0 to 100) (foxtail, giant; 31 g ai/ha): 98
Foxtail, Giant plant response rating (0 to 100) (foxtail, giant; 62 g ai/ha): 100
Plant response rating: Ryegrass, Ital. (ryegrass, Ital.; 16 g ai/ha): 35
Plant response rating: Ryegrass, Ital. (ryegrass, Ital.; 31 g ai/ha): 60
Plant response rating: Ryegrass, Ital. (ryegrass, Ital.; 62 g ai/ha): 65
Plant response rating: Ryegrass, Ital. (ryegrass, Ital.; 125 g ai/ha): 70
Plant response rating (scale of 0 to 100 where 0 is no effect and 100 is complete control) (galium; 125 g ai/ha): 95
Plant response rating (scale of 0 to 100 where 0 is no effect and 100 is complete control) (galium; 250 g ai/ha): 95
Galium plant response rating (0 to 100) (galium; 31 g ai/ha): 60
Galium plant response rating (0 to 100) (galium; 62 g ai/ha): 65
Plant response rating (0 to 100), Speedwell (speedwell): 100
Plant response rating: Speedwell (speedwell; 62 g ai/ha): 100
Plant response rating: Speedwell (speedwell; 125 g ai/ha): 100
Plant response rating: Bromegrass, Down (bromegrass, down [1]; 16 g ai/ha): 30
Plant response rating: Bromegrass, Down (bromegrass, down [1]; 31 g ai/ha): 45
Plant response rating: Bromegrass, Down (bromegrass, down [1]; 62 g ai/ha): 65
Plant response rating: Bromegrass, Down (bromegrass, down [1]; 125 g ai/ha): 65
Plant response rating: Bluegrass (bluegrass; 16 g ai/ha): 65
Plant response rating: Bluegrass (bluegrass; 31 g ai/ha): 70
Plant response rating: Bluegrass (bluegrass; 62 g ai/ha): 75
Plant response rating: Bluegrass (bluegrass; 125 g ai/ha): 80
Plant response rating (0 to 100), Bromegrass, Down (bromegrass, down [2]): 35
Plant response rating: Bromegrass, Down (bromegrass, down [2]; 31 g ai/ha): 40
Plant response rating: Bromegrass, Down (bromegrass, down [2]; 62 g ai/ha): 55
Plant response rating: Bromegrass, Down (bromegrass, down [2]; 125 g ai/ha): 70

FC(F)(F)COc1nc(-c2ccc(Cl)cc2)nn1Cc1ccnc(C(F)(F)F)c1 [Compound 31]
Plant response rating (0 to 100), Chamomile (chamomile): 30
Plant response rating: Chamomile (chamomile; 31 g ai/ha): 95
Plant response rating: Chamomile (chamomile; 62 g ai/ha): 100
Plant response rating: Chamomile (chamomile; 125 g ai/ha): 100
Plant response rating (scale of 0 to 100 where 0 is no effect and 100 is complete control) (morningglory; 125 g ai/ha): 55
Plant response rating (scale of 0 to 100 where 0 is no effect and 100 is complete control) (morningglory; 250 g ai/ha): 65
Morningglory plant response rating (0 to 100) (morningglory; 31 g ai/ha): 25
Morningglory plant response rating (0 to 100) (morningglory; 62 g ai/ha): 45
Soybean plant response rating (0 to 100) (soybean; 31 g ai/ha): 5
Soybean plant response rating (0 to 100) (soybean; 62 g ai/ha): 5
Plant response rating (scale of 0 to 100 where 0 is no effect and 100 is complete control) (soybean): 10
Plant response rating (0 to 100), Lambsquarters (lambsquarters): 75
Plant response rating: Lambsquarters (lambsquarters; 62 g ai/ha): 85
Plant response rating: Lambsquarters (lambsquarters; 125 g ai/ha): 90
Plant response rating (scale of 0 to 100 where 0 is no effect and 100 is complete control) (foxtail, giant; 125 g ai/ha): 98
Plant response rating (scale of 0 to 100 where 0 is no effect and 100 is complete control) (foxtail, giant; 250 g ai/ha): 100
Foxtail, Giant plant response rating (0 to 100) (foxtail, giant; 31 g ai/ha): 90
Foxtail, Giant plant response rating (0 to 100) (foxtail, giant; 62 g ai/ha): 95
Plant response rating: Ryegrass, Ital. (ryegrass, Ital.; 16 g ai/ha): 25
Plant response rating: Ryegrass, Ital. (ryegrass, Ital.; 31 g ai/ha): 30
Plant response rating: Ryegrass, Ital. (ryegrass, Ital.; 62 g ai/ha): 55
Plant response rating: Ryegrass, Ital. (ryegrass, Ital.; 125 g ai/ha): 65
Plant response rating (scale of 0 to 100 where 0 is no effect and 100 is complete control) (galium; 125 g ai/ha): 30
Plant response rating (scale of 0 to 100 where 0 is no effect and 100 is complete control) (galium; 250 g ai/ha): 35
Galium plant response rating (0 to 100) (galium; 31 g ai/ha): 5
Galium plant response rating (0 to 100) (galium; 62 g ai/ha): 30
Plant response rating (0 to 100), Speedwell (speedwell): 100
Plant response rating: Speedwell (speedwell; 62 g ai/ha): 100
Plant response rating: Speedwell (speedwell; 125 g ai/ha): 100
Plant response rating: Bromegrass, Down (bromegrass, down [1]; 16 g ai/ha): 25
Plant response rating: Bromegrass, Down (bromegrass, down [1]; 31 g ai/ha): 45
Plant response rating: Bromegrass, Down (bromegrass, down [1]; 62 g ai/ha): 50
Plant response rating: Bromegrass, Down (bromegrass, down [1]; 125 g ai/ha): 70
Plant response rating: Bluegrass (bluegrass; 16 g ai/ha): 50
Plant response rating: Bluegrass (bluegrass; 31 g ai/ha): 65
Plant response rating: Bluegrass (bluegrass; 62 g ai/ha): 75
Plant response rating: Bluegrass (bluegrass; 125 g ai/ha): 85
Plant response rating (0 to 100), Bromegrass, Down (bromegrass, down [2]): 25
Plant response rating: Bromegrass, Down (bromegrass, down [2]; 31 g ai/ha): 25
Plant response rating: Bromegrass, Down (bromegrass, down [2]; 62 g ai/ha): 50
Plant response rating: Bromegrass, Down (bromegrass, down [2]; 125 g ai/ha): 55
